Data from article PMC7673237 (ACS infectious diseases, 2020).
In brackets after ≈: the same amount, converted by molar mass. Where two headings read alike, the source gives them in different places.

How the values were obtained:
E. coli MG1655OXA-48 = assay: Bacterial susceptibility; format: cell-based; details: for MIC: Escherichia coli
OXA-48 = OXA-48 (Klebsiella pneumoniae, UniProt Q6XEC0); assay: Inhibition of OXA-48 mediated nitrocefin hydrolysis; format: biochemical; details: purified OXA-48, nitrocefin substrate, Morrison equation
OXA-58 = OXA-58 (Acinetobacter baumannii, UniProt Q2TR58); assay: Inhibition assay with nitrocefin as reporter, OXA-58; format: biochemical
OXA-24 = OXA-24 (Acinetobacter baumannii, UniProt Q8RLA6); assay: Inhibition assay with nitrocefin as reporter, OXA-24; format: biochemical
OXA-10 = OXA-10 (Pseudomonas aeruginosa, UniProt P14489); assay: Inhibition assay with nitrocefin as reporter, OXA-10; format: biochemical
E. coli MG1655 = assay: Accumulation assay in E. coli; format: cell-based; details: wild-type E. coli MG1655, 10 minutes at 37°C, LC-MS/MS
OXA-163 = OXA-163 (Klebsiella pneumoniae, UniProt Q6XEC0, DEL214-217/S212D); assay: Inhibition assay with nitrocefin as reporter, OXA-163; format: biochemical; details: read-out: CDD-97 Ki; OXA-163, nitrocefin substrate

## CC1(C)S[C@@H]2[C@H](NC(=O)[C@H](N)c3ccccc3)C(=O)N2[C@H]1C(=O)O [AMP, ampicillin]
E. coli MG1655OXA-48; MG1655OXA48, read-out: AMP MIC, no inhibitor (0 μg/mL)
  MIC: 512 µg/mL (≈ 1470 µM)

## NC(=O)[C@@H]1CC[C@@H]2CN1C(=O)N2OS(=O)(=O)O [Avibactam, avibactam]
E. coli MG1655OXA-48; MG1655OXA48, read-out: AMP MIC, with avibactam 0.125 μg/mL
  MIC: 256 µg/mL
E. coli MG1655OXA-48; MG1655OXA48, read-out: AMP MIC, with avibactam 0.25 μg/mL
  MIC: 128 µg/mL
E. coli MG1655OXA-48; MG1655OXA48, read-out: AMP MIC, with avibactam 0.5 μg/mL
  MIC: 64 µg/mL
E. coli MG1655OXA-48; MG1655OXA48, read-out: AMP MIC, with avibactam 1 μg/mL
  MIC: 32 µg/mL
E. coli MG1655OXA-48; MG1655OXA48, read-out: AMP MIC, with avibactam 2 μg/mL
  MIC: 16 µg/mL
E. coli MG1655OXA-48; MG1655OXA48, read-out: AMP MIC, with avibactam 4 μg/mL
  MIC: 4 µg/mL
E. coli MG1655OXA-48; MG1655OXA48, read-out: IMP MIC, with avibactam 0.125 μg/mL
  MIC: 0.312 µg/mL
E. coli MG1655OXA-48; MG1655OXA48, read-out: IMP MIC, with avibactam 0.25 μg/mL
  MIC: 0.312 µg/mL
E. coli MG1655OXA-48; MG1655OXA48, read-out: IMP MIC, with avibactam 0.5 μg/mL
  MIC: 0.156 µg/mL
E. coli MG1655OXA-48; MG1655OXA48, read-out: IMP MIC, with avibactam 1 μg/mL
  MIC: 0.156 µg/mL
E. coli MG1655OXA-48; MG1655OXA48, read-out: IMP MIC, with avibactam 2 μg/mL
  MIC: 0.156 µg/mL
E. coli MG1655OXA-48; MG1655OXA48, read-out: IMP MIC, with avibactam 4 μg/mL
  MIC: 0.0781 µg/mL
E. coli MG1655OXA-48; inhibitor up to 4 μg/ml
  change of both the AMP and IMP MICs with increasing inhibitor concentration: dose-dependent decrease

## CCOc1ccccc1N1CCN(c2ncnc(N3CCC(C(=O)O)CC3)n2)CC1 [CDD-97]
OXA-48
  Ki: 530 ± 80 nM
OXA-58; OXA-58 vs OXA-48
  Ki less potent than observed for OXA-48: about 100 fold
OXA-58; read-out: CDD-97 Ki, OXA-58, nitrocefin substrate
  Ki: 45 ± 0.8 µM
E. coli MG1655OXA-48; with CDD-97 4 μg/mL
  AMP MIC: 1024 µg/mL
  IMP MIC: 0.625 µg/mL
E. coli MG1655OXA-48; with CDD-97 8 μg/mL
  AMP MIC: 512 µg/mL
  IMP MIC: 0.3125 µg/mL
E. coli MG1655OXA-48; with CDD-97 16 μg/mL
  AMP MIC: 512 µg/mL
  IMP MIC: 0.3125 µg/mL
E. coli MG1655OXA-48; with CDD-97 32 μg/mL
  AMP MIC: 512 µg/mL
  IMP MIC: 0.3125 µg/mL
E. coli MG1655OXA-48; with CDD-97 64 μg/mL
  AMP MIC: 512 µg/mL
  IMP MIC: 0.3125 µg/mL
OXA-24; OXA-24 vs OXA-48
  decrease in potency compared to OXA-48: 26 fold
OXA-24; read-out: CDD-97 Ki, OXA-24, nitrocefin substrate
  Ki: 14 ± 1 µM
OXA-10; OXA-10 vs OXA-48
  Ki less potent than observed for OXA-48: about 100 fold
OXA-10; read-out: CDD-97 Ki, OXA-10, nitrocefin substrate
  Ki: 61 ± 27 µM
E. coli MG1655
  level in cells lower than the positive control tetracycline: 20 fold
OXA-163
  Ki: 440 ± 20 nM

## C[C@@H](O)[C@H]1C(=O)N2C(C(=O)O)=C(SCCN=CN)C[C@H]12 [IMP, imipenem]
E. coli MG1655OXA-48; MG1655OXA48, read-out: IMP MIC, no inhibitor (0 μg/mL)
  MIC: 0.625 µg/mL (≈ 2.09 µM)
